Structures are written as SMILES. Where “and” joins values, the source holds several entries; their conditions need not be identical. Equal values may be shown once.

Data set [1] can be described thus: biodistribution of the I-124 PET agent in selected organs. It is filed as in vivo, mice. Set-up: unit not given here. Particulars: 48 h post injection, per gram of organ. Here is the method: After PET imaging at 48 h post-injection, a group of mice (3 mice/group) were sacrificed and the biodistribution of the I-124 PET agent in selected organs/gram were determined.

Data set [2] relates to RIF tumors. In words: in vivo tumor imaging with small animal PET scanner. Particulars: C3H mice bearing RIF tumors. Here is the method:
In initial experiments, the 1-124 labeled photosensitizer 2 at variable radioactive doses (35, 50 and 100 µCi) was injected in three sets of C3H mice (3 mice/group, bearing RIF tumors at the shoulder) respectively and the images were taken with a small animal PET scanner at 24, 48 and 72 h time intervals (FIG. 6 images A, B, and C). In all radioactive doses, the best images were obtained at 48 h post injection of the drug.

For data set [3], the system named is RIF tumors. As to the kind of experiment: in vivo photosensitizing efficacy, tumor re-growth after laser light. As to conditions: C3H mice bearing RIF tumors, light at 665 nm for 30 minutes. The procedure:
The in vivo efficacy was determined in C3H mice bearing RIF tumors (5 mice/group). The tumors were exposed to light at 665 nm (in vivo absorption) with a laser light ([…]) for 30 minutes. The tumor-regrowth was measured everyday (for details see ‘Methods’ part of the project). […] Further studies to optimize the treatment conditions at variable fluence and fluence-rates and time intervals are currently in progress.

The next data set concerns RIF cells. As to the kind of experiment: preliminary screening of aromatic alkyl ethers for in vitro and in vivo efficacy (RIF cells). In kind it is cell-based. From the text: There are several methods for labeling the compounds with iodine isotopes. Conversion of the cold iodo- to radioactive iodo- is possible, but the specific activity of the resulting product is low. […] Therefore, we prepared a series of aromatic alkyl ethers and evaluated them for in vitro (RIF cells) and in vivo efficacy (RIF cells).

A further data set relates to RIF tumor cells. In words: in vitro photosensitizing efficacy (PDT, MTT assay) in RIF tumor cells. Set-up: in vitro photosensitizing efficacy compared with HPPH: dose or concentration left out as unconfirmed. In kind it is cell-based. Here is the method: For evaluating in vitro photosensitizing efficacy of 3-iodobenxyloxyethyl-pyropheophorbide-a 2, RIF tumor cells were grown in alpha-DMEM with 10% fetal calf serum, penicillin and streptomycin. Cells were maintained in 5% CO2, 95% air and 100% humidity. For determining the PDT efficacy, these cells were plated in 96-well plates and a density of 1×10^4 cells well in complete media. After overnight incubation to allow the cells to attach, the HPPH and the related cold-iodo derivative 2 were individually added at variable concentrations. After 3 hr incubation in the dark at 37° C., the cells were washed once with PBS, and irradiated with light. After light treatment, the cells were washed once and placed in complete media and incubated for 48 hrs. Then 10 μl of a 4-mg/ml solution of MTT was added to each well. After incubating for 4 hr at 37° C. the MTT+ media were removed and 100 μl DMSO was added to solubilize the formazin crystals. The 96-well plate was read on a microtiter plate reader at an absorbance of 560 nm. The optimal cell kill was obtained at a concentration of 1.00 µM. The results were plotted as percent survival of the corresponding dark (drug no light) control for each compound tested. (FIG. 4) Each data point represents the mean from 3 separate experiments, and the error bars are the standard deviation. Each experiment used 5 replicate wells.

As for `CCC1=C(C)c2cc3[nH]c(cc4nc(c5c6[nH]c(cc1n2)c(C)c6C(=O)C5)[C@@H](CCC(=O)OC)[C@@H]4C)c(C)c3C(C)OCc1cccc([124I])c1` (stereo partly drawn) [I-124 labeled photosensitizer 4], in data set [1] (AVG of 3 mice), the “biodistribution, Blood” value was determined as 1.12; the “biodistribution, Gut” value is listed as 2.47; the “biodistribution, Heart” value was determined as 0.99; the “biodistribution, Kidney” value worked out at 1.10. Besides, in data set [1] (AVG of 3 mice), the “biodistribution, Liver” value was 3.31; the “biodistribution, Lungs” value was determined as 1.09; the “biodistribution, Muscle” value came to 0.35; the “biodistribution, Spleen” value was 2.11. For the same compound, in data set [1] (AVG of 3 mice), the “biodistribution, Stomach” value is on record as 1.02 and the “biodistribution, Tumor” value is on record as 2.22. Moreover, in data set [1] (individual mouse (Mouse 1-3)), the “biodistribution, Blood” value was 1.47 and 1.33 and 0.57; the “biodistribution, Gut” value is 3.6 and 2.22 and 1.69; the “biodistribution, Heart” value is 0.79 and 1.21 and 0.98; the “biodistribution, Kidney” value is 1.09 and 1.21 and 0.99. Besides, in data set [1] (individual mouse (Mouse 1-3)), the “biodistribution, Liver” value is 3.46 and 3.22 and 3.26; the “biodistribution, Lungs” value was 0.99 and 1.29 and 1.00; the “biodistribution, Muscle” value was 0.18 and 0.49 and 0.37; the “biodistribution, Spleen” value was 2.04 and 2.23 and 2.05. Further, in data set [1] (individual mouse (Mouse 1-3)), the “biodistribution, Stomach” value was 1.3 and 0.66 and 1.10; the “biodistribution, Tumor” value was 2.4 and 2.15 and 2.10. Also, in the data set on RIF tumors [2], the “presence of the compound in organs other than tumor on PET images” value was “especially in liver was evident”.
`CCC1=C(C)c2cc3[nH]c(cc4nc(c5c6[nH]c(cc1n2)c(C)c6C(=O)C5)[C@@H](CCC(=O)OC)[C@@H]4C)c(C)c3C(C)OCc1cccc(I)c1` (stereo partly drawn) [Compound 2]: the “time at which tumor re-growth was observed” value in the data set with RIF tumors [3] (dose 0.25 […]mole/kg) was 10 days post-injection; with RIF tumors [3] (dose 0.50 […]mole/kg) it was 15 days post-injection. In addition, in the data set on RIF tumors [3] (dose of 1.0 and 1.5 µmol/kg, 24 hours post injection), the “in vivo efficacy (PDT)” value was “quite effective”. Also, the “efficacy in preliminary screening compared with HPPH” value in the data set with RIF cells is listed as “as effective as HPPH”. Further, the “concentration at which the optimal cell kill was obtained” value in the data set with RIF tumor cells (3 hr incubation in the dark, light, MTT after 48 hrs) is recorded as 1.00 µM. Further, the “in vitro photosensitizing efficacy compared with HPPH” value with RIF tumor cells (FIG. 4) is “slightly more effective”.
